Source: US20240074986A1, “Methods of Enhancing Non-Viral Gene Therapy” (Spark Therapeutics, Inc., priority 2020, published 2024)

Tests used:
CLEC4F+ Kupffer cells = experiment: Liver histology, anti-CLEC4F staining, depletion efficacy (Example 3); assay type: in vivo, Balb/C mice; settings: for Kupffer cell depletion (CLEC4F+ staining): clodronate IV 50 or 17 mpk, anti-CD115 IP 12 mpk 1 or 4 doses, pexidartinib oral gavage 100 mpk 4 doses, FIG. 5A
Method: (§1) Balb/C mice were treated with the immune cell depletion agents clodronate, anti-CD115 antibody (as described in Example 1), or pexidartinib. Clodronate was provided by IV administration at 50 mpk (1.25 mg) or 17 mpk (425 μg), anti-CD115 antibody was provided by IP administration at 12 mpk (300 μg) 1 dose vs 4 doses. Anti-CD115 antibody was as described in Example 1. Pexidartinib was provided by oral gavage administration at 100 mpk (2.5 mg) 4 doses. A no-treatment mice group was used as a control. Each group contained 5 male BALB/c mice.
(§2) After the treatment, mice were euthanized and the liver samples were harvested for histology. Liver samples were stained with either anti-CLEC4F or anti-CD68 mouse antibody. Individual scores of the treatment groups were normalized by the no-treatment group to calculate depletion efficacy.
(§3) Pexidartinib was mixed with mice chow at 400 mg Pex/kg chow. Liver histology was taken after mice were fed with Pex-chow for 7 or 21 days.

CD68+ macrophages = experiment: Liver histology, anti-CD68 staining, depletion efficacy (Example 3); assay type: in vivo, Balb/C mice; settings: for CD68+ macrophage depletion: clodronate IV 50 or 17 mpk, anti-CD115 IP 12 mpk 1 or 4 doses, pexidartinib oral gavage 100 mpk 4 doses, FIG. 5B
Method: as §1, §2, §3

hFIX = hFIX levels in mouse plasma by ELISA after pexidartinib chow and DNA-LNP-5 (Example 4); assay type: in vivo; settings: DNA-LNP-5 10 μg per mouse; 1-4 weeks after dosing; Pex chow 7 or 21 days before dosing or regular chow; FIG. 7
Method: Pexidartinib was mixed with mice chow at 400 mg Pex/kg chow. In group 2 and group 3, mice chow was replaced with Pex chow at 21 days and 7 days before DNA-LNP-5 dosing.
Mice in group 1 were fed with regular chow throughout the study and served as controls. Mice were dosed with DNA-LNP-5 (10 μg per mouse). LNP-5 (GenVoy™ LNP) was obtained from Precision NanoSystems Inc.) and contained: ionizable lipid at 50%; DSPC at 10%; cholesterol 37.5%; and stabilizer (PEG-Lipid) at 2.5% (see Roces et al., Pharmaceutics, 2020 12, 1095.) DNA was as described in Example 1. hFIX levels in mouse plasma were quantified using ELISA 1-4 weeks after dosing.

INF-γ and/or IL-6 = experiment: Plasma pro-inflammatory cytokines by MSD 6 hours post-dose (Example 2); assay type: in vivo, mice (Balb/c); settings: 6-hour post-dose plasma; SPK-LNP1 50 μg; FIGS. 3A and 3B
Method: The effects of immune cell depletion on cytokine release and on transgene expression were studied using an anti-CD115 antibody in combination with clodronate, which is a toxic agent encapsulated in liposomes to induce monocyte/macrophage apoptosis.
FIX transgene DNA plasmid (50 μg), formulated in lipid nanoparticle (LNP) delivery vehicles (SPK-LNP1), was dosed in mice (n=5; Balb/c; Jackson Laboratory) by intravenous administration alone, or in combination with anti-CD115 antibody and/or clodronate (purchased from Liposoma), as outlined in Table 3. SPK-LNP-1 had the following composition: C12-200 lipid at 35%; DOPE at 16%; cholesterol at 46.5%; and C14-PEG2000 (Avanti® Polar Lipids) at 2.5%. DNA and anti-CD115 antibody were as described in Example 1.
6-hour post-dose plasma samples were analyzed for a panel of pro-inflammatory cytokines using MSD: IL-6, IFN-γ, TNF-α and IL-1β.

| Compound | Kupffer cell depletion (CLEC4F+ staining) (CLEC4F+ Kupffer cells) | depletion of CLEC4F+ Kupffer cells (CLEC4F+ Kupffer cells; mixed with mice chow at 400 mg Pex/kg chow, fed 7 or 21 days, FIG. 6B) | CD68+ macrophage depletion (CD68+ macrophages) | depletion of CD68+ macrophages (CD68+ macrophages; mixed with mice chow at 400 mg Pex/kg chow, fed 7 or 21 days, FIG. 6A) | hFIX levels in mouse plasma (hFIX) | cytokine (INF-γ and/or IL-6) levels following DNA-LNP administration (INF-γ and/or IL-6) |
| --- | --- | --- | --- | --- | --- | --- |
| FC(F)(F)c1ccc(CNc2ccc(Cc3c[nH]c4ncc(Cl)cc34)cn2)cn1 [Pexidartinib, pexidartinib] | small impact | significant depletion | no impact | significant depletion | a few mice in Pex-treated groups showed detectable expression | – |
| O=P(O)(O)C(Cl)(Cl)P(=O)(O)O [clodronate] | significant effect | – | significant effect | – | – | moderately reduced |
